Assay results published in patent US20250230165A1, “HETEROCYCLIC COMPOUNDS FOR USE IN THE TREATMENT OF CANCER” (ARTIOS PHARMA LIMITED, priority 2021, published 2025).

Each compound was assayed against T1, Human Polθ polymerase domain (aa1820-2590) (Homo sapiens, UniProt O75417) (assay: Polθ Polymerase Domain Kinact/KI Assay (PicoGreen)). Conditions: 0.8 nM Polθ, 100 nM DNA substrate, kobs vs [I] fit for 2-step covalent inhibitor.
T1 construct: Human Polθ polymerase domain (aa1820-2590) was expressed in E. coli; made in house; host or cells: E. coli
T1 sequence (O75417 1820-2590): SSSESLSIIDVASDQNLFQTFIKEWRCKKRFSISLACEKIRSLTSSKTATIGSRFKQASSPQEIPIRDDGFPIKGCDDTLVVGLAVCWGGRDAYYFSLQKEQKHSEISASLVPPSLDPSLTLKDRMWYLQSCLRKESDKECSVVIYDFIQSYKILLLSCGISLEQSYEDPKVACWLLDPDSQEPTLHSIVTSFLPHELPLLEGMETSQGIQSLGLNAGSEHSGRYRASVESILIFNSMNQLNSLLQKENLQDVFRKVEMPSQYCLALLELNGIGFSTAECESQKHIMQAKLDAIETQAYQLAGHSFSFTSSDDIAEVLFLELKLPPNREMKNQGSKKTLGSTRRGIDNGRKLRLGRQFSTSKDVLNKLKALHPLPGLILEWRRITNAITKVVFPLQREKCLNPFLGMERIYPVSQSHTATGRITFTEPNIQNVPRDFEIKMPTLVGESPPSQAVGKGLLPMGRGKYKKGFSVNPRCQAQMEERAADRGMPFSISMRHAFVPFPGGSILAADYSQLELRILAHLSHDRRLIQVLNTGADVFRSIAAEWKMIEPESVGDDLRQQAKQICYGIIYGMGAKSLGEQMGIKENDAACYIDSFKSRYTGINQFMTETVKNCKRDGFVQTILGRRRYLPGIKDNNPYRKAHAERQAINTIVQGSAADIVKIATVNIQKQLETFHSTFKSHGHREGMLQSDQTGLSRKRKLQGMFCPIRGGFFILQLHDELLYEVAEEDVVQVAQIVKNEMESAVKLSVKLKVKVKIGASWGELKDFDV
Format: biochemical
How it was run: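 Kinact and KI derive from fitting kobs versus [I], where kobs were fitted from EDTA-stopped PicoGreen time courses (up to 60 min) in Tris pH 7.5 buffer with 1% DMSO, 0.8 nM enzyme, 100 nM DNA and […].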

Row | Compound | Kinact/Kl [M⁻¹ s⁻¹]
1 | C=CC(=O)N1CC(N2CCC(CN3C[C@H]4CC(=O)N(c5cc(C(F)(F)F)cc(C)n5)[C@@H]4C(=O)N(C)c4cccc(C)c43)CC2)C1 [Example 93, (3aR,11aS)-5-((1-(1-acryloylazetidin-3-yl)piperidin-4-yl)methyl)-6,10-dimethyl-1-(6-methyl-4-(trifluoromethyl)pyridin-2-yl)-1,3a,4,5,10,11a-hexahydro-2H-benzo[b]pyrrolo[2,3-f][1,4]diazocine-2,11(3H)-dione] | 2.73e+06
2 | C=CC(=O)N1C[C@@H]2CN(CCN3C[C@H]4CC(=O)N(c5cc(C(F)(F)F)cc(C)n5)[C@@H]4C(=O)N(C)c4cccc(F)c43)CCN2C(=O)[C@@H]1C (single isomer, unassigned) [Example 59] | 1.08e+06
3 | C=CC(=O)N1CCN(CCN2C[C@H]3CC(=O)N(c4cc(C(F)(F)F)cc(C)n4)[C@@H]3C(=O)N(C)c3cccc(Cl)c32)CC1CC#N (mixture of isomers) [Example 258b, 2-((S/R)-1-acryloyl-4-(2-((3aR,11aS)-6-chloro-10-methyl-1-(6-methyl-4-(trifluoromethyl)pyridin-2-yl)-2,11-dioxo-1,2,3,3a,4,10,11,11a-octahydro-5H-benzo[b]pyrrolo[2,3-f][1,4]diazocin-5-yl)ethyl)piperazin-2-yl)acetonitrile] | 1.53e+06
4 | C=CC(=O)N1CC2(CN(CCN3C[C@H]4CC(=O)N(c5cc(C(F)(F)F)cc(C)n5)[C@@H]4C(=O)N(C)c4cccc(C)c43)C[C@@]2(C)C#N)C1 (racemic) [Example 119b, (S/R)-2-acryloyl-6-(2-((3aR,11aS)-6,10-dimethyl-1-(6-methyl-4-(trifluoromethyl)pyridin-2-yl)-2,11-dioxo-1,2,3,3a,4,10,11,11a-octahydro-5H-benzo[b]pyrrolo[2,3-f][1,4]diazocin-5-yl)ethyl)-8-methyl-2,6-diazaspiro[3.4]octane-8-carbonitrile] | 3.87e+06
5 | C#CC(=O)N1Cc2nc(CN3C[C@H]4CC(=O)N(c5cc(C(F)(F)F)cc(C)n5)[C@@H]4C(=O)N(C)c4cccc(Cl)c43)cn2C[C@H]1C (racemic) [Example 172b, (3aR,11aS)-6-chloro-10-meth-yl-1-(6-methyl-4-(trifluoro-methyl)pyridin-2-yl)-5-(((R/S)-6-methyl-7-propioloyl-5,6,7,8-tetra-hydroimidazo [1,2-a]pyrazin-2-yl)methyl)-1,3a,4,5,10,11a-hexahydro-2H-benzo[b]pyrrolo [2,3-f][1,4]diazo-cine-2,11(3H)-dione] | 280000
6 | C=CC(=O)N1CCN(c2cccc(N3C[C@H]4CC(=O)N(c5cc(C(F)(F)F)cc(C)n5)[C@@H]4C(=O)N(C)c4cccc(Cl)c43)n2)CC1 [Example 56, (3aR,11aS)-5-(6-(4-acryloylpiperazin-1-yl)pyridin-2-yl)-6-chloro-10-methyl-1-(6-methyl-4-(trifluoromethyl)pyridin-2-yl)-1,3a,4,5,10,11a-hexahydro-2H-benzo[b]pyrrolo[2,3-f][1,4]diazocine-2,11(3H)-dione] | 36000
7 | (3aR,11aS)-5-(2-((3S/R,9aS/R)-8-acryloyl-3-methyl-4-oxooctahydro-2H-pyrazino[1,2-a]pyrazin-2-yl)ethyl)-6-fluoro-10-methyl-1-(6-methyl-4-(trifluoromethyl)pyridin-2-yl) 1,3a,4,5,10,11a-hexahydro-2H-benzo[b]pyrrolo[2,3-f][1,4]diazocine-2,11(3H)-dione [Example 110] | 1e+06
8 | C=CC(=O)N1CCn2nc(CN3C[C@H]4CC(=O)N(c5cc(C(F)(F)F)cc(C)n5)[C@@H]4C(=O)N(C)c4cccc(C)c43)cc2C1 [Example 173, (3aR,11aS)-5-((5-acryloyl-4,5,6,7-tetrahydropyrazolo [1,5-a]pyrazin-2-yl)methyl)-6,10-dimethyl-1-(6-methyl-4-(trifluoro-methyl)pyridin-2-yl)-1,3a,4,5,10, 11a-hexahydro-2H-benzo[b]pyrrolo [2,3-f][1,4]diazo-cine-2,11(3H)-dione] | 2.92e+06
9 | C=CC(=O)N1CC(N2CCN(CCN3C[C@H]4CC(=O)N(c5cc(C(F)(F)F)cc(C)n5)[C@@H]4C(=O)N(C)c4cccc(F)c43)C[C@H](F)C2)C1 [Example 29, (3aR,11aS)-5-(2-((S)-4-(1-acryloylazetidin-3-yl)-6-fluoro-1,4-diazepan-1-yl)ethyl)-6-fluoro-10-methyl-1-(6-methyl-4-(trifluoromethyl)pyridin-2-yl)-1,3a,4,5,10,11a-hexahydro-2H-benzo[b]pyrrolo[2,3-f][1,4]diazocine-2,11(3H)-dione] | 320000
10 | C=CC(=O)N1C[C@@H]2CN(CCN3C[C@H]4CC(=O)N(c5cc(C(F)(F)F)cc(C)n5)[C@@H]4C(=O)N(C)c4cccc(F)c43)CCN2C(=O)[C@H]1C (single isomer, unassigned) [Example 60] | 300000
11 | C=CC(=O)N1CCN(c2nc(CN3C[C@H]4CC(=O)N(c5cc(C(F)(F)F)cc(C)n5)[C@@H]4C(=O)N(C)c4cccc(F)c43)co2)CC1 [Example 124, (3aR,11aS)-5-((2-(4-acryloylpiperazin-1-yl)oxazol-4-yl)methyl)-6-fluoro-10-methyl-1-(6-methyl-4-(trifluoromethyl)pyridin-2-yl)-1,3a,4,5,10,11a-hexahydro-2H-benzo[b]pyrrolo[2,3-f][1,4]diazocine-2,11(3H)-dione] | 11000
12 | C=CC(=O)N1CC(N2CCC(CN3C[C@H]4CC(=O)N(c5cc(C(F)(F)F)cc(C)n5)[C@@H]4C(=O)N(C)c4cccc(Cl)c43)C(O)C2)C1 (stereo partly drawn) [Example 96, (3aR,11aS)-5-((1-(1-acryloylazetidin-3-yl)-3-hydroxypiperidin-4-yl)methyl)-6-chloro-10-methyl-1-(6-methyl-4-(trifluoromethyl)pyridin-2-yl)-1,3a,4,5,10,11a-hexahydro-2H-benzo[b]pyrrolo[2,3-f][1,4]diazocine-2,11(3H)-dione] | 810000
13 | C=CC(=O)N1Cc2ccc(CN3C[C@H]4CC(=O)N(c5cc(C(F)(F)F)cc(C)n5)[C@@H]4C(=O)N(C)c4cccc(F)c43)cc2C1 [Example 130, (3aR,11aS)-5-((2-acryloylisoindolin-5-yl)methyl)-6-fluoro-10-methyl-1-(6-methyl-4-(trifluoromethyl)pyridin-2-yl)-1,3a,4,5,10,11a-hexahydro-2H-benzo[b]pyrrolo[2,3-f][1,4]diazocine-2,11(3H)-dione] | 710000
14 | C=CC(=O)N1CC2(C1)N[C@H](C)CN(CCN1C[C@H]3CC(=O)N(c4cc(C(F)(F)F)cc(C)n4)[C@@H]3C(=O)N(C)c3cccc(F)c31)C2C (stereo partly drawn) [Example 37a, (3aR,11aS)-5-(2-((6R,9S/R)-2-acryloyl-6,9-dimethyl-2,5,8-triazaspiro[3.5]nonan-8-yl)ethyl)-6-fluoro-10-methyl-1-(6-methyl-4-(trifluoromethyl)pyridin-2-yl)-1,3a,4,5,10,11a-hexahydro-2H-benzo[b]pyrrolo[2,3-f][1,4]diazocine-2,11(3H)-dione] | 1.48e+06

Continued, values first:

Row | Kinact/Kl [M⁻¹ s⁻¹] | Compound
15 | 640000 | C=CC(=O)N1CCOC[C@H]1c1ccc(CN2C[C@H]3CC(=O)N(c4cc(C(F)(F)F)cc(C)n4)[C@@H]3C(=O)N(C)c3cccc(C)c32)cc1 (racemic) [Example 323a, (3aR,11aS)-5-(4-((R/S)-4-acryloyl-morpholin-3-yl)-benzyl)-6,10-di-methyl-1-(6-meth-yl-4-(trifluorometh-yl)pyridin-2-yl)-1,3a,4,5,10,11a-hexahydro-2H-benzo[b]pyrrolo [2,3-f][1,4]diazo-cine-2,11(3H)-dione]
16 | 2.02e+06 | C=CC(=O)N1Cc2nc(CN3C[C@H]4CC(=O)N(c5cc(C(F)(F)F)cc(C)n5)[C@@H]4C(=O)N(C)c4cccc(Cl)c43)ccc2[C@@H]1CC#N (racemic) [Example 290a]
17 | 2.17e+06 | C=CC(=O)N1Cc2nc(CN3C[C@H]4CC(=O)N(c5cc(C(F)(F)F)cc(C)n5)[C@@H]4C(=O)N(C)c4cccc(C)c43)ccc2[C@H]1CC#N (racemic) [Example 319a, 2-((S/R)-6-acryloyl-2-(((3aR,11aS)-6,10-dimethyl-1-(6-meth-yl-4-(trifluorometh-yl)pyridin-2-yl)-2,11-dioxo-1,2,3,3a,4,10,11,11a-octahydro-5H-benzo [b]pyrrolo[2,3-][1,4]diazocin-5-yl)meth-yl)-6,7-dihydro-5H-pyrrolo[3,4-b]pyr-idin-5-yl)acetonitrile]
18 | 1.07e+06 | C=CC(=O)N1CC(N2CC[C@@H](CN3C[C@H]4CC(=O)N(c5cc(C(F)(F)F)cc(C)n5)[C@@H]4C(=O)N(C)c4cccc(Cl)c43)[C@@H](C#N)C2)C1 (single isomer, unassigned) [Example 227b]
